Patent US11376261B2, “Methods for diagnosing and managing treatment of atopic dermatitis” (University of Cincinnati, priority 2017, dated 2022)
Like-named read-outs stand apart in the source and are kept apart here.

Legend:
ECZEMA55 genes = assay: Quantitative RT-PCR of ECZEMA55 genes in pre- and post-treatment skin biopsy of an AD patient (Example 7); format: in vivo, human; conditions: one AD patient; 600 mg then two 300 mg s.c. injections over 4 weeks
Protocol: An AD patient comes to the clinic with severe itch and lesions on at least 45% of their body surface. Symptoms indicate a possible diagnosis of atopic dermatitis. They are not sufficiently controlled by topical treatments like pimecrolimus and betamethasone. The patient is advised to begin dupilumab treatment. Duplimumab is administered by subcutaneous injection at recommended dosing for adult patients, which is initially at a dose of 600 mg, followed by 300 mg administered every two weeks. The patient is given one 600 mg injection followed by two 300 mg injections over the course of 4 weeks. Pre- and post-treatment samples are collected and stored in RNA later solution (Invitrogen) at −80° C.
Pre- and post-treatment skin biopsy is performed using a minimally invasive disposable punch. The skin biopsy site is swabbed with isopropyl alcohol (70%) and anesthetized with local anesthetic (1 mL of 1% lidocaine+adrenaline). Using a punch biopsy needle, a 4 mm^2 full thickness skin biopsy from the lesion is obtained and stored in RNA later solution and sent to the diagnostic lab to perform RT-PCR assay.
RNA is isolated from the tissue and subjected to quantitative RT-PCR to compare the levels of expression of the ECZEMA55 genes of the patient's tissue to normal healthy skin. […] The treatment is assessed as effective and the patient is advised to receive further dupilumab treatment doses.

atopic dermatitis [1] = conditions: Dupilumab 300 mg, GSE59294, cited from earlier work; for EASI-POST: post-treatment; for EASI-PRE: pre-treatment
AD skin lesions [2] = assay: Pre- vs post-treatment cutaneous gene expression, dupilumab 300 mg (NCBI GEO GSE59294), overlap with 89ADGES; format: in vivo, human; conditions: administration of dupilumab 300 mg, Fold Change ≥2.0, p-value<0.05
Protocol: (§1) Pre- and post-treatment gene expression datasets have been retrieved from publicly accessible database NCBI GEO, including datasets related to three widely-used treatments for AD: betamethasone and pimecrolimus (NCBI GEO data GSE32473), and dupilumab 300 mg (NCBI GEO data GSE59294).
CCL18, IL-37, SERPINB3 and SERPINB4 genes are associated with multiple array IDs.
Samples in Dupilumab dataset include GSE59294.
(§2) FIG. 6 is a table showing expression of members of the ECZEMA55 gene panel compared to normal skin. Expression changes are due to different treatment options. Betamethasone, pimecrolimus, and dupilumab are shown. Note direction and magnitude of treatment-related expression change for each gene. Treatment inducing change in a direction opposite to that occurring in ECZEMA55 can drive treatment-associated health benefits.

atopic dermatitis [3] = assay: Symptom score of paired patient samples (pEASI reduction in GSE32473; pre-/post-treatment EASI in GSE59294); format: in vivo, human
Protocol: Gene expression data related to ECZEMA55 genes were extracted for pre- and post-treatment samples. Values were expressed as post-treatment/pre-treatment ratio. Variable selection or feature selection was performed by clustering of 55 genes into smaller number of coherent clusters and identifying the most representative gene per cluster. Representative genes were used to build a regression model which can be used to efficiently model the data. Outcome variable was defined either as the reduction in symptom score (available as per subject pEASI reduction; pEASI=partial EASI reduction in dataset GSE32473) or as the post-treatment symptom score (taking pre-treatment symptom score as an independent covariate and per subject pre-treatment symptom scores is available, as in the dataset GSE59294). A regression model was generated and regression trees were constructed. Classification/prediction and efficiency of the model were determined. Samples in Dupilumab dataset include GSE59294. […] We therefore added pre-treatment symptom score for analysis and for generating regression models

AD skin lesions [4] = assay: Pre- vs post-treatment cutaneous gene expression, betamethasone and pimecrolimus (NCBI GEO GSE32473), overlap with 89ADGES; format: in vivo, human; conditions: application to AD skin lesions, Fold Change ≥2.0, p-value<0.05
Protocol: as §1
Members of 89ADGES that are differentially regulated due to the application of betamethasone to AD skin lesions. […] CCL18, MSMB, SERPINB3 and SERPINB4 genes are associated with multiple array IDs.
BTC, CCL18, MSMB, IL-37, SERPINB3 and SERPINB4 genes are associated with multiple array IDs.
as §2

For “dupilumab: fully humanized monoclonal IgG4 antibody that inhibits IL-4 and IL-13 signaling by binding the IL-4Rα subunit”, the “Direction of ECZEMA55 gene expression change after treatment” value (ECZEMA55 genes) is given as “opposite to gene expression in AD disease state compared to healthy skin”, the “Number of ECZEMA55 genes with expression changed compared to pre-treatment” value (ECZEMA55 genes) is given as “about 30 genes” and the EASI-POST (atopic dermatitis [1]; Patient 1) is given as 9.105. For the same molecule, the EASI-PRE (atopic dermatitis [1]; Patient 1) was 34.6, the EASI-POST (atopic dermatitis [1]; Patient 2) was 3.835 and the EASI-PRE (atopic dermatitis [1]; Patient 2) was 31.45. For the same molecule, the EASI-POST (atopic dermatitis [1]; Patient 3) was 1.526, the EASI-PRE (atopic dermatitis [1]; Patient 3) was 34.65 and the “Number of 89ADGES genes differentially regulated in treated biopsy samples compared to baseline pre-treatment condition” value (AD skin lesions [2]) was 42 genes. It also gave an EASI-post/pre (atopic dermatitis [3]; Patient 1, Dupilumab 300 mg) of 0.263, an EASI-post/pre (atopic dermatitis [3]; Patient 2, Dupilumab 300 mg) of 0.122 and an EASI-post/pre (atopic dermatitis [3]; Patient 3, Dupilumab 300 mg) of 0.044.

With CC[C@@H]1/C=C(\C)C[C@H](C)C[C@H](OC)[C@H]2O[C@@](O)(C(=O)C(=O)N3CCCC[C@H]3C(=O)O[C@H](/C(C)=C/[C@@H]3CC[C@H](Cl)[C@H](OC)C3)[C@H](C)[C@@H](O)CC1=O)[C@H](C)C[C@@H]2OC [pimecrolimus] the “Number of 89ADGES genes differentially regulated in treated biopsy samples compared to baseline pre-treatment condition” value (AD skin lesions [4]) was 41 genes.

In the case of C[C@H]1C[C@H]2[C@@H]3CCC4=CC(=O)C=C[C@]4(C)[C@@]3(F)[C@@H](O)C[C@]2(C)[C@@]1(O)C(=O)CO [betamethasone], the “Number of 89ADGES genes differentially regulated in treated biopsy samples compared to baseline pre-treatment condition” value (AD skin lesions [4]) is reported as 45 genes.
